Assay [1] addresses T1, BTK (Homo sapiens, UniProt Q06187).
T1 construct: BTK Degradative Activity of Exemplary Compounds of the Present Disclosure in a RAMOS Cell Line; host or cells: RAMOS
The assay can be described thus: BTK degradative activity in a RAMOS cell line (Western blot). Format: cell-based. The settings on record: 6 hours after administration, read-out: RAMOS BTK Degradation DC50. In a few lines:
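Ramos cells in RPMI with 10% FBS were treated with compound in DMSO at various concentrations for 6 h at 37 °C. BTK was measured by Western blot against GAPDH with infrared fluorescent detection and band quantification. DC50 is the concentration at which 50% of BTK is degraded.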
In general terms: Immunoblotting shows a protein as a band on a membrane.

The test system of assay [2] is REC-1 cells. Briefly: Growth inhibitory activity in BTK-dependent REC-1 cell line (CellTiter-Glo). The settings on record: Homo sapiens, Rec1, 144 h, 6 days after administration, read-out: REC1 Cellular Grwoth Inhibition IC50. The format is cell-based. Here is the method:
REC-1 (ATCC) and REC-1 BTK^C481S cells were plated in 96-well plates at 8,000 cells/well in 90 ul of RPMI growth medium containing 10% heat-inactivated FBS and 1× Penicillin Streptomycin, and then incubated at 37° C. overnight. The following day, the test compound was administered to the cells by using 10× compound stock solution prepared in growth medium at various concentrations. After administration of the compound, cells were then incubated at 37° C. for 6 days. Before CellTiter-Glo assay, the plates were equilibrated at room temperature for approximately 10 minutes. 100 ul of CellTiter-Glo® Reagent (Promega) was added to each well. The plates were then incubated at room temperature for 10 minutes and luminescence was recorded by EnSpire plate reader (PerkinElmer).
The GI50 values (i.e., the concentration of test compound at which 50% of cell growth are inhibited) were calculated. A designation of “A” corresponds to a […] value less than 20 nM. A designation of “B” corresponds to a […] value greater than or equal to 20 nM and less than 200 nM. A designation of “C” corresponds to a […] value greater than or equal to 200 nM.
Background: In ATP-based viability assays light output follows the ATP content of the culture.

The source of these data is patent US11530222B2, “Substituted pyrrolopyrimidine and pyrazolopyrimidine as Bruton's tyrosine kinase (BTK) degraders” (ACCUTAR BIOTECHNOLOGY INC., priority 2021, dated 2022).

The structures appear in SMILES notation.

T1 sequence (Q06187 whole entry): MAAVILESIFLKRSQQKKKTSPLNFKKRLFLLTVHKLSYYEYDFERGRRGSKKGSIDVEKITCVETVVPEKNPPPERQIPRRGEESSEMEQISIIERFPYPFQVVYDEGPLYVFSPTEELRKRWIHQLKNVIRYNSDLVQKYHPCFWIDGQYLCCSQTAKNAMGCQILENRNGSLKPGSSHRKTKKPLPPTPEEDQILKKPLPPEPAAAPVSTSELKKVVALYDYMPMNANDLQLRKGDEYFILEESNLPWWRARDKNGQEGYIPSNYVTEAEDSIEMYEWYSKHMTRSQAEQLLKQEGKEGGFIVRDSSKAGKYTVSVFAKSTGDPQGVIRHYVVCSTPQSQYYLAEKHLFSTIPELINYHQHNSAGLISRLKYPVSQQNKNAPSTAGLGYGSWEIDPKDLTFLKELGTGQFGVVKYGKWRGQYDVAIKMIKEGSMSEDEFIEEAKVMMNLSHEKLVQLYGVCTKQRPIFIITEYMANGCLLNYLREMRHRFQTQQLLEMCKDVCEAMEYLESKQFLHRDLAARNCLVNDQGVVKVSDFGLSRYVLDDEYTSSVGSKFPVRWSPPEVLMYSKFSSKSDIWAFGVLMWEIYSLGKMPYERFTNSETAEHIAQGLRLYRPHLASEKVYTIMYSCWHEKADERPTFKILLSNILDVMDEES

Broadly, the DC50 is the concentration at which degradation of the target reaches its halfway point. In general, IC50 refers to the concentration that gives 50% inhibition. On to `COc1ccc(F)cc1C(=O)NCc1ccc(-c2nn(C3CCN(C(=O)CCCCN4CCN(c5ccc6c(c5)CN([C@H]5CCC(=O)NC5=O)C6=O)CC4)C3)c3ncnc(N)c23)cc1` (stereo partly drawn) [Compound 55, N-(4-(4-amino-1-(1-(5-(4-(2-((S)-2,6-dioxopiperidin-3-yl)-1-oxoisoindolin-5-yl)piperazin-1-yl)pentanoyl)pyrrolidin-3-yl)-1H-pyrazolo[3,4-d]pyrimidin-3-yl)benzyl)-5-fluoro-2-methoxybenzamide], for which the DC50 in assay [1] is 10 to 100 nM. In addition, the half-inhibitory concentration (IC50) in assay [2] was no less than 200 nM.
The matching figures for `COc1ccc(F)cc1C(=O)NCc1ccc(-c2nn(C3CN(c4ccc(CN5CCN(c6ccc7c(c6)CN([C@H]6CCC(=O)NC6=O)C7=O)CC5)cn4)C3)c3ncnc(N)c23)cc1` [Compound 54, (S)—N-(4-(4-amino-1-(1-(5-((4-(2-(2,6-dioxopiperidin-3-yl)-1-oxoisoindolin-5-yl)piperazin-1-yl)methyl)pyridin-2-yl)azetidin-3-yl)-1H-pyrazolo[3,4-d]pyrimidin-3-yl)benzyl)-5-fluoro-2-methoxybenzamide]: less than 10 nM and less than 20 nM.
The corresponding values for `COc1ccc(F)cc1C(=O)NCc1ccc(-c2nn(C3CN(c4ccc(CN5CCN(c6ccc7c(c6)CN([C@H]6CCC(=O)NC6=O)C7=O)CC5)cc4)C3)c3ncnc(N)c23)cc1` [Compound 61, (S)—N-(4-(4-amino-1-(1-(4-((4-(2-(2,6-dioxopiperidin-3-yl)-1-oxoisoindolin-5-yl)piperazin-1-yl)methyl)phenyl)azetidin-3-yl)-1H-pyrazolo[3,4-d]pyrimidin-3-yl)benzyl)-5-fluoro-2-methoxybenzamide] are less than 10 nM and less than 20 nM.
The matching figures for `COc1ccc(F)cc1C(=O)NCc1ccc(-c2nn(C3CCN(c4ccc(CN5CCN(c6ccc7c(c6)CN([C@H]6CCC(=O)NC6=O)C7=O)CC5)cn4)C3)c3ncnc(N)c23)cc1` (stereo partly drawn) [Compound 92, N-(4-(4-amino-1-(1-(5-((4-(2-((S)-2,6-dioxopiperidin-3-yl)-1-oxoisoindolin-5-yl)piperazin-1-yl)methyl)pyridin-2-yl)pyrrolidin-3-yl)-1H-pyrazolo[3,4-d]pyrimidin-3-yl)benzyl)-5-fluoro-2-methoxybenzamide]: less than 10 nM and 20 to 200 nM.
Regarding `COc1ccc(F)cc1C(=O)NCc1ccc(-c2nn(C3CN(C(=O)c4ccc(CN5CCN(c6ccc7c(c6)CN([C@H]6CCC(=O)NC6=O)C7=O)CC5)cc4)C3)c3ncnc(N)c23)cc1` [Compound 62, (S)—N-(4-(4-amino-1-(1-(4-((4-(2-(2,6-dioxopiperidin-3-yl)-1-oxoisoindolin-5-yl)piperazin-1-yl)methyl)benzoyl)azetidin-3-yl)-1H-pyrazolo[3,4-d]pyrimidin-3-yl)benzyl)-5-fluoro-2-methoxybenzamide], in assay [1], the half-maximal degradation concentration (DC50) is less than 10 nM. For the same compound, the concentration for half-maximal inhibition (IC50) in assay [2] fell in the range of 20 to 200 nM.
Regarding `COc1ccc(F)cc1C(=O)NCc1ccc(-c2nn(C3CCN(c4ccc(CN5CCN(c6ccc7c(c6)CN([C@H]6CCC(=O)NC6=O)C7=O)CC5)cc4)CC3)c3ncnc(N)c23)cc1` [Compound 53, (S)—N-(4-(4-amino-1-(1-(4-((4-(2-(2,6-dioxopiperidin-3-yl)-1-oxoisoindolin-5-yl)piperazin-1-yl)methyl)phenyl)piperidin-4-yl)-1H-pyrazolo[3,4-d]pyrimidin-3-yl)benzyl)-5-fluoro-2-methoxybenzamide], the half-maximal degradation concentration (DC50) in assay [1] was less than 10 nM. Moreover, the IC50 in assay [2] was less than 20 nM.
The matching figures for `COc1ccc(F)cc1C(=O)NCc1ccc(-c2nn(C3CCN(c4ccc(CN5CCN(c6ccc7c(c6)CN([C@H]6CCC(=O)NC6=O)C7=O)CC5)cn4)CC3)c3ncnc(N)c23)cc1` [Compound 52, (S)—N-(4-(4-amino-1-(1-(5-((4-(2-(2,6-dioxopiperidin-3-yl)-1-oxoisoindolin-5-yl)piperazin-1-yl)methyl)pyridin-2-yl)piperidin-4-yl)-1H-pyrazolo[3,4-d]pyrimidin-3-yl)benzyl)-5-fluoro-2-methoxybenzamide]: less than 10 nM and less than 20 nM.
For the compound `COc1ccc(F)cc1C(=O)NCc1ccc(-c2nn(C3CCN(C(=O)CCCCCN4CCN(c5ccc6c(c5)CN([C@H]5CCC(=O)NC5=O)C6=O)CC4)C3)c3ncnc(N)c23)cc1` (stereo partly drawn) [Compound 64, N-(4-(4-amino-1-(1-(6-(4-(2-((S)-2,6-dioxopiperidin-3-yl)-1-oxoisoindolin-5-yl)piperazin-1-yl)hexanoyl)pyrrolidin-3-yl)-1H-pyrazolo[3,4-d]pyrimidin-3-yl)benzyl)-5-fluoro-2-methoxybenzamide], the DC50 in assay [1] was less than 10 nM. Moreover, the half-inhibitory concentration (IC50) in assay [2] was in the range of 20 to 200 nM.
The corresponding values for `COc1ccc(F)cc1C(=O)NCc1ccc(-c2nn(C3CCN(C(=O)c4ccc(CN5CCN(c6ccc7c(c6)CN([C@H]6CCC(=O)NC6=O)C7=O)CC5)cc4)C3)c3ncnc(N)c23)cc1` (stereo partly drawn) [Compound 63] are less than 10 nM and 20 to 200 nM.
The matching figures for `COc1ccc(F)cc1C(=O)NCc1ccc(-c2nn(-c3ccc(N4CCC(CN5CCN(c6ccc7c(c6)C(=O)N(C6CCC(=O)NC6=O)C7=O)CC5)CC4)c(F)c3)c3ncnc(N)c23)cc1` (stereo not drawn) [Compound 50, N-(4-(4-amino-1-(4-(4-((4-(2-(2,6-dioxopiperidin-3-yl)-1,3-dioxoisoindolin-5-yl)piperazin-1-yl)methyl)piperidin-1-yl)-3-fluorophenyl)-1H-pyrazolo[3,4-d]pyrimidin-3-yl)benzyl)-5-fluoro-2-methoxybenzamide]: 10 to 100 nM and less than 20 nM.
Take `O=C1CCC(N2C(=O)c3ccc(N4CCC(N5CC(CC(=O)N6CCC(Nc7ncnc8[nH]cc(C(=O)c9ccc(Oc%10ccccc%10)cc9Cl)c78)CC6)C5)CC4)cc3C2=O)C(=O)N1` (stereo not drawn) [Compound 48, 5-(4-(3-(2-(4-((5-(2-chloro-4-phenoxybenzoyl)-7H-pyrrolo[2,3-d]pyrimidin-4-yl)amino)piperidin-1-yl)-2-oxoethyl)azetidin-1-yl)piperidin-1-yl)-2-(2,6-dioxopiperidin-3-yl)isoindoline-1,3-dione]: the DC50 in assay [1] was less than 10 nM.
On the same count and under the same terms, then `O=C1CCC(N2Cc3cc(N4CCN(CCCCCCC(=O)N5CCC[C@@H](Nc6ncnc7[nH]cc(C(=O)c8ccc(Oc9ccccc9)cc8Cl)c67)C5)CC4)ccc3C2=O)C(=O)N1` (stereo partly drawn) [Compound 17, 3-(5-(4-(7-((R)-3-((5-(2-chloro-4-phenoxybenzoyl)-7H-pyrrolo[2,3-d]pyrimidin-4-yl)amino)piperidin-1-yl)-7-oxoheptyl)piperazin-1-yl)-1-oxoisoindolin-2-yl)piperidine-2,6-dione], with 10 to 100 nM; and `O=C1CC[C@H](N2Cc3cc(N4CCN(CCCCCC(=O)N5CCC(Nc6ncnc7[nH]cc(C(=O)c8ccc(Oc9ccccc9)cc8Cl)c67)CC5)CC4)ccc3C2=O)C(=O)N1` [Compound 13, (S)-3-(5-(4-(6-(4-((5-(2-chloro-4-phenoxybenzoyl)-7H-pyrrolo[2,3-d]pyrimidin-4-yl)amino)piperidin-1-yl)-6-oxohexyl)piperazin-1-yl)-1-oxoisoindolin-2-yl)piperidine-2,6-dione], with less than 10 nM.
`O=C1CC[C@H](N2Cc3cc(N4CCN(CCCCC(=O)N5CCC[C@@H](Nc6ncnc7[nH]cc(C(=O)c8ccc(Oc9ccccc9)cc8Cl)c67)C5)CC4)ccc3C2=O)C(=O)N1` [Compound 14, (S)-3-(5-(4-(5-((R)-3-((5-(2-chloro-4-phenoxybenzoyl)-7H-pyrrolo[2,3-d]pyrimidin-4-yl)amino)piperidin-1-yl)-5-oxopentyl)piperazin-1-yl)-1-oxoisoindolin-2-yl)piperidine-2,6-dione]: the DC50 in assay [1] lay in the range of 10 to 100 nM.
For `O=C1CCC(N2C(=O)c3ccc(N4CCN(CCCCCCCN5CCC[C@@H](Nc6ncnc7[nH]cc(C(=O)c8ccc(Oc9ccccc9)cc8Cl)c67)C5)CC4)cc3C2=O)C(=O)N1` (stereo partly drawn) [Compound 29, 5-(4-(7-((R)-3-((5-(2-chloro-4-phenoxybenzoyl)-7H-pyrrolo[2,3-d]pyrimidin-4-yl)amino)piperidin-1-yl)heptyl)piperazin-1-yl)-2-(2,6-dioxopiperidin-3-yl)isoindoline-1,3-dione], the half-maximal degradation concentration (DC50) in assay [1] fell in the range of 10 to 100 nM.
Still for that read-out and setting: then `O=C1CCC(N2C(=O)c3ccc(OCCCCCCCN4CCN(c5ccc(C(=O)N6CCC[C@@H](Nc7ncnc8[nH]cc(C(=O)c9ccc(Oc%10ccccc%10)cc9Cl)c78)C6)cn5)CC4)cc3C2=O)C(=O)N1` (stereo partly drawn) [Compound 1, 5-((7-(4-(5-((R)-3-((5-(2-chloro-4-phenoxybenzoyl)-7H-pyrrolo [2,3-d]pyrimidin-4-yl)amino)piperidine-1-carbonyl)pyridin-2-yl)piperazin-1-yl)heptyl)oxy)-2-(2,6-dioxopiperidin-3-yl)isoindoline-1,3-dione], with no less than 100 nM; and `COc1ccc(C(=O)N2CCCN(Cc3ccc(C(=O)N4CCC(Nc5ncnc6[nH]cc(C(=O)c7ccc(Oc8ccccc8)cc7Cl)c56)CC4)cc3)CC2)cc1N1CCC(=O)NC1=O` [Compound 79, 1-(5-(4-(4-(4-((5-(2-chloro-4-phenoxybenzoyl)-7H-pyrrolo[2,3-d]pyrimidin-4-yl)amino)piperidine-1-carbonyl)benzyl)-1,4-diazepane-1-carbonyl)-2-methoxyphenyl)dihydropyrimidine-2,4(1H,3H)-dione], with no less than 100 nM.
